# Data reported in PubChem BioAssay AID1259375 (The Scripps Research Institute Molecular Screening Center, 2018).
# Calls of active or inactive are those of the source. How the calls were made is not given here.
# Target: Microphthalmia-associated transcription factor (Homo sapiens) (UniProt O75030)
# Experiment: MITF inhibitors by FRET titration, dose response, biochemical, high throughput (AID 1259375);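 further: FRET between CFP-tagged and YFP-tagged MITF protein partners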
# Conditions: FRET biochemical assay, MITF inhibition
# Microphthalmia-associated transcription factor (Homo sapiens), sequence (O75030 whole entry, looked up): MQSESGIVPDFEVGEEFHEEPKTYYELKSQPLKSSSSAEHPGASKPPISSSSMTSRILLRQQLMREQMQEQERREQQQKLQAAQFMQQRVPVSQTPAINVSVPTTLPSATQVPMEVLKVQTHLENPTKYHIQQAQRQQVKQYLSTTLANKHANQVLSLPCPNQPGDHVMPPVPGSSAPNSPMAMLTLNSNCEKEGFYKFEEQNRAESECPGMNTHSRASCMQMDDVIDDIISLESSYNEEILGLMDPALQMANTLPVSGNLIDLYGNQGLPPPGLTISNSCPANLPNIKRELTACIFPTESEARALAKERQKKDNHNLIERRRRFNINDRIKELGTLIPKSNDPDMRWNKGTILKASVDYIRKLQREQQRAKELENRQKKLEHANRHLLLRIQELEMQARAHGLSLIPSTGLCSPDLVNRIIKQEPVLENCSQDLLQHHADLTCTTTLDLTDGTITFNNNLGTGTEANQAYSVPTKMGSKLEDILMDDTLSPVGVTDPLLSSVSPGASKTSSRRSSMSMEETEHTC
row,SMILES,IC50
1,Cc1cc(/C=C2/C=CC(=O)O2)oc1C,> 7.29 µM (inactive)
2,Nc1cc2c(S(=O)(=O)O)cc(S(=O)(=O)O)cc2cc1S(=O)(=O)O,> 6.48 µM (inactive)
3,O=C(O)c1c2c(nc3ccc(S(=O)(=O)N4CCC(C(=O)O)CC4)cc13)CCC2,> 6.48 µM (inactive)
4,O=C1O[C@H](C(O)CO)C(O)=C1O (some centres not stated),> 6.48 µM (inactive)
5,CC(C)[C@@H]1NC(=O)[C@H]2CN(C(=O)NCc3ccccc3)CCN2C1=O,> 6.48 µM (inactive)
6,Cc1ccc(C)n1C(Cc1c[nH]c2ccccc12)C(=O)O (configuration not stated),> 6.48 µM (inactive)
7,CC(C)C[C@H]1NC(=O)[C@H]2CN(C(=O)NC3CCCCC3)CCN2C1=O,> 6.48 µM (inactive)
8,O=P(O)(O)C(Sc1ccc(Cl)cc1)P(=O)(O)O,> 6.48 µM (inactive)
9,O=C1N[C@@H](CC2CCCCC2)C(=O)N2CCN(C(=O)Nc3ccccc3)C[C@H]12,> 6.48 µM (inactive)
10,Cc1cncc2c(S(=O)(=O)N3CC[C@@H](NC(=O)C(O)c4ccc(F)cc4F)C3)cccc12 (some centres not stated),> 6.48 µM (inactive)
11,CN(C)/C=C/C=C/C(=O)C1CCC/C(=C\C=C\N(C)C)C1=O (configuration not stated),> 6.48 µM (inactive)
12,O=C1N[C@@H](Cc2ccc(O)cc2)C(=O)N2CCN(C(=O)NCc3ccccc3)C[C@H]12,> 6.48 µM (inactive)
13,O=C1N[C@H](Cc2ccccc2)C(=O)N2CCN(C(=O)NC3CCCCC3)C[C@H]12,> 6.48 µM (inactive)
14,O=c1c(O)c(-c2ccc(O)cc2O)oc2cc(O)cc(O)c12,> 6.48 µM (inactive)
15,O=C(NCCO)c1ccc2nc(-c3ccco3)c(-c3ccco3)nc2c1,1.8 µM
16,Oc1ccc(CCNc2cc(-c3cccs3)ncn2)cc1,> 6.7 µM (inactive)
17,Cc1ccc(N2C(=O)C3C(C2=O)C2(CO)C=CC3(C)O2)cc1[N+](=O)[O-] (configuration not stated),> 6.48 µM (inactive)
18,CN(C)C1C(=O)C(C(N)=O)=C(O)C2(O)C(=O)C3=C(O)c4c(O)cccc4C(C)(O)C3CC12 (configuration not stated),> 6.48 µM (inactive)
19,CN(C)C(=O)N1CCN(S(=O)(=O)c2cccc([N+](=O)[O-])c2)CC1,> 6.48 µM (inactive)
20,O=C(NC1CCCCC1)N1CCN2C(=O)[C@@H]3CCCN3C(=O)[C@H]2C1,> 6.48 µM (inactive)
21,O=C(NCC(O)C(=O)N1CCOCC1)c1cccc(Nc2ccc3[nH]ncc3c2)n1 (configuration not stated),> 6.48 µM (inactive)
22,COc1cccc(CN2CCN(C(=O)c3ccc(F)cc3)CC2)c1,> 5.27 µM (inactive)
23,Cc1ccc2[nH]c(=O)c(=O)[nH]c2c1,> 12.1 µM (inactive)
24,O=C(O)c1cc2ncc(-c3n[nH]c(-c4cnc5cc(C(=O)O)nn5c4)c3[N+](=O)[O-])cn2n1,> 6.48 µM (inactive)
25,O=C(Nc1ccc(N2CCOCC2)cc1)c1ccc2nc(-c3cccs3)sc2c1,> 7.76 µM (inactive)

row,SMILES,IC50
1,O=C(OCCCC(=O)N1CCOCC1)c1cc(-c2ccco2)nc2ccccc12,> 6.58 µM (inactive)
2,OCCNc1cc(-c2cccs2)ncn1,> 6.01 µM (inactive)
3,C=CCc1cc(C)ccc1OCCCCn1ccnc1,> 6.48 µM (inactive)
4,O=C1N[C@@H](CSCc2ccccc2)C(=O)N2CCN(C(=O)NC3CCCCC3)C[C@H]12,> 6.48 µM (inactive)
5,COc1ccc(/C=C2\N=C(c3ccc4c(c3)OCO4)OC2=O)cc1Cl,> 5.41 µM (inactive)
6,Cc1oc(C(=O)O)cc1CSCCSCc1cc(C(=O)O)oc1C,> 6.48 µM (inactive)
7,O=C(CN1C(=O)NC2(CCCCCC2)C1=O)NC(=O)NCc1ccco1,> 7.16 µM (inactive)
8,Nc1ccc(O)c(C(=O)O)c1,2.52 µM
9,CC(=O)NCC(c1cccs1)S(=O)(=O)c1ccc(C)cc1 (configuration not stated),> 6.41 µM (inactive)
10,O=S(=O)(N=S(=O)(/C=C/c1ccccc1)c1ccccc1)c1ccccc1 (configuration not stated),> 5.36 µM (inactive)
11,C[C@@H](OCc1ccccc1)[C@@H]1NC(=O)[C@H]2CN(C(=O)NC3CCCCC3)CCN2C1=O,> 6.48 µM (inactive)
12,CN=C1SC(CC(=O)Nc2cccc(C(=O)O)c2)C(=O)N1C (configuration not stated),> 6.48 µM (inactive)
13,N=C1S/C(=C\c2ccco2)C(=O)N1c1nonc1N,3.61 µM
14,O=C(O)c1cc([N+](=O)[O-])cc2c1-c1c(cc([N+](=O)[O-])cc1[N+](=O)[O-])/C2=C/c1ccco1,1.77 µM
15,C/C(=N\Nc1ccc(S(=O)(=O)O)cc1)c1cccc(Br)c1,> 6.48 µM (inactive)
16,Cc1ccc(COc2ccc(/C=N/N=C3\NC(=O)C(CC(=O)O)S3)cc2)cc1 (configuration not stated),> 6.48 µM (inactive)
17,O=C(OCN1C(=O)c2ccccc2C1=O)c1cc2c(s1)CCC2,> 7.13 µM (inactive)
18,CC(C)C[C@@H]1NC(=O)[C@H]2CN(C(=O)NC3CCCCC3)CCN2C1=O,> 6.48 µM (inactive)
19,CC(C)(C)c1ccc(OCCn2cncn2)c(Cl)c1,> 6.48 µM (inactive)
20,COc1cc(OC)c(C(=O)OC2CCCC2=O)cc1OC (configuration not stated),> 7.05 µM (inactive)
21,O=C(O)/C=C/c1ccc([N+](=O)[O-])o1,> 10.6 µM (inactive)
22,CCc1ccc(NC(=O)CS(=O)CC(=O)NCCCc2ccccc2)cc1 (configuration not stated),> 6.48 µM (inactive)
23,O=C(/C=C/c1ccco1)Nc1nnc(-c2ccco2)s1,> 6.48 µM (inactive)
24,Cc1ccc(CCC(=O)Nc2ccc(-c3cn4c5c(nnc4n3)CCCC5)cc2)o1,> 6.48 µM (inactive)
25,O=C(O)c1cccc2c1C(=O)N(c1ccccc1)C2,> 6.31 µM (inactive)

row,SMILES,IC50
1,O=Cc1cccn1-c1ccc(C(=O)O)cc1,> 6.48 µM (inactive)
2,Cc1nnc(CNC(=O)c2ccc(-n3cccc3)cc2)o1,> 6.48 µM (inactive)
3,O=C(c1ccc(=O)oc1)N1CCc2ccccc21,> 7.53 µM (inactive)
4,O=S(=O)(O)c1cc(S(=O)(=O)O)c2cc(O)c(S(=O)(=O)O)cc2c1,> 6.48 µM (inactive)
5,NC(=O)CSc1ccc(C(N)=O)cc1[N+](=O)[O-],> 7.11 µM (inactive)
6,CC(C)[C@H]1NC(=O)[C@H]2CN(C(=O)NC3CCCCC3)CCN2C1=O,> 6.48 µM (inactive)
7,COCCNC(=O)COC(=O)c1cc(-c2ccco2)nc2ccccc12,> 6.59 µM (inactive)
8,CN(C)[C@@H]1C(=O)C(C(=O)NCN2CCCC2)=C(O)[C@@]2(O)C(=O)C3=C(O)c4c(O)cccc4[C@@](C)(O)[C@H]3C[C@@H]12,> 6.48 µM (inactive)
9,CCC[C@@H]1NC(=O)[C@H]2CN(C(=O)NCc3ccccc3)CCN2C1=O,> 6.48 µM (inactive)
10,COC(=O)CN1C(=O)S/C(=C/c2ccc([N+](=O)[O-])o2)C1=O,> 6.48 µM (inactive)
11,O=C(O)c1cc(-c2ccco2)nc2ccccc12,> 7.59 µM (inactive)
12,Cc1cc(NC(=O)C2CCN(C(=O)c3ccc(-n4cccc4)cc3)CC2)no1,> 6.48 µM (inactive)
13,O=C(NC1CCN(Cc2ccccc2)CC1)c1ccc2nc(-c3cccs3)sc2c1,> 6.38 µM (inactive)
14,O=C(COC(=O)COc1ccc(Cl)cc1)NCc1ccco1,> 7.21 µM (inactive)
15,CCC12c3ccccc3C(c3ccccc31)C1C(=O)NC(=O)C12 (configuration not stated),> 6.48 µM (inactive)
16,COc1cc(/C=N/N=C2\NC(=O)C(CC(=O)O)S2)ccc1OCc1ccc(C)cc1 (configuration not stated),> 6.48 µM (inactive)
17,C/C(N)=C(/C#N)C(=O)COC(=O)c1c2c(nc3ccccc13)/C(=C/c1ccco1)CC2,> 6.27 µM (inactive)
18,CCN(CCN(C)C)Cc1ccc(F)cc1,> 6.48 µM (inactive)
19,CN(C)CCCNC(=O)c1cccc(CN(C(=O)c2nc3ccc(-c4cn[nH]c4)cc3s2)C2CC2)c1,> 6.48 µM (inactive)
20,CN(C)CCNc1nc(C2COc3ccccc3O2)nc2ccc(-c3cn[nH]c3)cc12 (configuration not stated),> 6.48 µM (inactive)
21,O=C(O)c1coc(CNC(=O)c2cocc2C(=O)O)c1,> 6.48 µM (inactive)
22,O=C(Nc1ccc(N2CCOCC2)cc1)c1ccnc(Nc2ncccn2)c1,> 7.06 µM (inactive)
23,O=C(NNC(=O)c1cc(-c2ccco2)nc2ccccc12)NC1CCCCC1,> 6.48 µM (inactive)
24,O=P(O)(O)C(O)(CCNC(=S)Nc1ccccc1)P(=O)(O)O,> 6.83 µM (inactive)
25,O=C1N[C@@H](Cc2ccccc2)C(=O)N2CCN(C(=O)NCc3ccccc3)C[C@H]12,> 6.48 µM (inactive)

row,SMILES,IC50
1,CC(C)N(C)CCOC(=O)/C=C/c1ccco1,> 6.48 µM (inactive)
2,c1ccc2c(c1)ncn2CC1CCN(Cc2cn3ccccc3n2)CC1,> 6.48 µM (inactive)
3,N#CC(C#N)=C(N)/C(C#N)=C/c1ccc([N+](=O)[O-])o1,4.85 µM
4,S=c1[nH]nc(-c2cccnc2)n1/N=C/C=C/c1ccco1,> 6.48 µM (inactive)
5,O=C(OC1CCCC1=O)c1ccc(S(=O)(=O)N2CCCCC2)cc1 (configuration not stated),> 6.64 µM (inactive)
6,COc1ccc(C[C@@H]2NC(=O)[C@H]3CN(C(=O)NCc4ccccc4)CCN3C2=O)cc1,> 6.48 µM (inactive)
7,O=C(O)c1ccc(-n2cccc2)cc1Cl,> 6.48 µM (inactive)
8,CCN1CCN(Cc2coc3ccccc3c2=O)CC1,> 6.48 µM (inactive)
9,O=C(NCCc1ccc(O)cc1)c1cccc(-c2cccs2)c1,> 6.26 µM (inactive)
10,CCOC(=O)C1C2NC(=S)N(CC)C1(C)Oc1ccc(Br)cc12 (configuration not stated),> 6.31 µM (inactive)
11,CCc1ccc(NC(=O)CCc2nc(C3=CCN(C)CC3)no2)cc1,> 6.48 µM (inactive)
12,Cc1cc(C)nc(NS(=O)(=O)c2ccc(N3C(=O)C=CC3=O)cc2)n1,> 6.48 µM (inactive)
13,CC(O)C(=O)N/N=C/C=C/c1ccc([N+](=O)[O-])o1 (configuration not stated),> 7.17 µM (inactive)
14,CN1CC[C@H](Oc2cc(-c3cn[nH]c3)ccc2NC(=O)OCc2ccccc2)C1,> 6.48 µM (inactive)
15,CC(Oc1ccc(O)cc1)(P(=O)(O)O)P(=O)(O)O,> 6.48 µM (inactive)
16,O=C(/C=C/c1ccc(-c2cccc(C(F)(F)F)c2)o1)c1ccco1,> 6.63 µM (inactive)
17,O=C1OC(c2ccc(Cl)cc2Cl)=N/C1=C\c1ccc([N+](=O)[O-])o1,> 6.05 µM (inactive)
18,O=C1S/C(=C\c2ccco2)C(=O)N1c1ccccc1Cl,inactive
19,Cc1cccc(CN2CCN(C3CCC(C)CC3)CC2)c1 (configuration not stated),> 5.54 µM (inactive)
20,COC(=O)c1ccc(=O)c2nc3/c(=C/O)c(O)cc(=O)c3[nH]c12,2.02 µM
21,O=C(Nc1ccc(Oc2ccccc2)cc1)c1ccnc(-c2cccs2)c1,> 6.71 µM (inactive)
22,O=C(O)COc1ccc(-n2cccc2)cc1,> 6.48 µM (inactive)
